Data taken from ChEMBL document CHEMBL5512623, “Discovery of the novel and potent histamine H1 receptor antagonists for treatment of allergic diseases” (Eur J Med Chem, 2024).

Experiments:
[1] = Metabolic stability in human liver microsomes at 1 uM measured upto 120 mins by LC-MS/MS analysis; assay type: ADME, Microsome; conditions: 2 h
[2] = Plasma protein binding in human assessed as binding rate at 1000 ng/ml prewarmed for 30 mins by LC-MS/MS analysis; assay type: ADME, cell-free; conditions: read-out: PPB (converted)
[3] = Plasma protein binding in rat assessed as binding rate at 1000 ng/ml prewarmed for 30 mins by LC-MS/MS analysis; assay type: ADME, cell-free; conditions: read-out: PPB (converted)
[4] = Apparent permeability across basolateral to apical side in human Caco-2 cells at 5 uM measured at 60 mins; assay type: ADME, cell-based
[5] = Subacute toxicity in Sprague-Dawley rat assessed as increase in spleen to brain ratio at 140 mg/kg, IG administered once a day for 14 days; assay type: organism-based; conditions: in vivo, po, 336 h, time 14 day
[6] = Subacute toxicity in Sprague-Dawley rat assessed as ptosis at 140 mg/kg, IG administered once a day for 14 days; assay type: organism-based; conditions: in vivo, po, 336 h, time 14 day
[7] = Metabolic stability in Beagle dog liver microsomes at 1 uM measured upto 120 mins by LC-MS/MS analysis; assay type: ADME, Canis lupus familiaris, Microsome; conditions: 2 h
[8] = AUC (0 to t) in male Sprague-Dawley rat at 25 mg/kg, po measured upto 24 hrs by LC-MS/MS analysis; assay type: ADME, organism-based; conditions: in vivo
Cytochrome P450 1A2 = biological target: T1, Cytochrome P450 1A2 (Mus musculus, UniProt P00186); experiment: Inhibition of mouse CYP1A2 at 0.01 to 50 uM measured after 30 mins by LC-MS/MS analysis; assay type: ADME; conditions: 0.5 h, dose 0.01-50 µM
T1 sequence (P00186 whole entry): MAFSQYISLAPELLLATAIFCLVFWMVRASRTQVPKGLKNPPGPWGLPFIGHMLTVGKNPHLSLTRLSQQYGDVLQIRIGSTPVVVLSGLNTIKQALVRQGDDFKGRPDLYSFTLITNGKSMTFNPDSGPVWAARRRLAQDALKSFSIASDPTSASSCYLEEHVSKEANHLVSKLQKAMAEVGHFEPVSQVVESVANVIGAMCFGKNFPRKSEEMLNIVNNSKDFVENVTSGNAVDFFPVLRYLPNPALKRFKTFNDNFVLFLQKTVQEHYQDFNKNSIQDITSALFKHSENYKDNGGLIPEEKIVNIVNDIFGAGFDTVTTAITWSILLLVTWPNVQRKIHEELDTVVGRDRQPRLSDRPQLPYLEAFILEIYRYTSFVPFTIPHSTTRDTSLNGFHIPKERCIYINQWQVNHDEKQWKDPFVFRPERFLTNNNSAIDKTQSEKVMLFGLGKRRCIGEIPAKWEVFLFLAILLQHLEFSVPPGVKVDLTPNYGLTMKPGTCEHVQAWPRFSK

[9] = Subacute toxicity in Sprague-Dawley rat assessed as abnormal symptoms at 50 mg/kg, IG administered once a day for 14 days; assay type: organism-based; conditions: in vivo, po, 336 h, time 14 day
[10] = MRT (0 to infinity) in male Sprague-Dawley rat at 25 mg/kg, po measured upto 24 hrs by LC-MS/MS analysis; assay type: ADME, organism-based; conditions: in vivo
[11] = Acute toxicity in Sprague-Dawley rat assessed as reduction in animal activity at 700 mg/kg, IG measured for 7 days; assay type: organism-based; conditions: in vivo, po, 168 h, time 7 day
[12] = Cmax in male Sprague-Dawley rat at 25 mg/kg, po measured upto 24 hrs by LC-MS/MS analysis; assay type: ADME, organism-based; conditions: in vivo
[13] = Plasma protein binding in human assessed as binding rate at 250 ng/ml prewarmed for 30 mins by LC-MS/MS analysis; assay type: ADME, cell-free; conditions: read-out: PPB (converted)
[14] = Plasma protein binding in human assessed as binding rate at 1200 ng/ml prewarmed for 30 mins by LC-MS/MS analysis; assay type: ADME, cell-free; conditions: read-out: PPB (converted)
[15] = Acute toxicity in Sprague-Dawley rat assessed as weight loss at 700 mg/kg, IG measured for 7 days; assay type: organism-based; conditions: in vivo, po, 168 h, time 7 day
[16] = Subacute toxicity in Sprague-Dawley rat assessed as wheezing at 140 mg/kg, IG administered once a day for 14 days; assay type: organism-based; conditions: in vivo, po, 336 h, time 14 day
[17] = Subacute toxicity in Sprague-Dawley rat assessed as effect on lymphocyte count at 140 mg/kg, IG administered once a day for 14 days; assay type: organism-based; conditions: in vivo, po, 336 h, time 14 day
[18] = Subacute toxicity in Sprague-Dawley rat assessed as increase in aspartate aminotransferase level in serum at 140 mg/kg, IG administered once a day for 14 days; assay type: organism-based; conditions: in vivo, po, 336 h, time 14 day
[19] = Subacute toxicity in Sprague-Dawley rat assessed as animal death at 50 to 140 mg/kg, IG administered once a day for 14 days; assay type: organism-based; conditions: in vivo, po, 336 h, dose 50-140 mg/kg, time 14 day
[20] = Oral bioavailability in male Sprague-Dawley rat at 25 mg/kg measured upto 24 hrs by LC-MS/MS analysis; assay type: ADME, organism-based; conditions: in vivo
[21] = Cmax in male Sprague-Dawley rat brain at 10 mg/kg, IG administered as single dose; assay type: ADME, organism-based; conditions: po
[22] = Plasma protein binding in rat assessed as binding rate at 1200 ng/ml prewarmed for 30 mins by LC-MS/MS analysis; assay type: ADME, cell-free; conditions: read-out: PPB (converted)
[23] = Ratio of Cmax in female Sprague-Dawley rat brain to plasma at 10 mg/kg, IG administered as single dose; assay type: ADME, organism-based; conditions: brain and plasma, po, read-out: BPR
[24] = Subacute toxicity in Sprague-Dawley rat assessed as effect on white blood cell count at 140 mg/kg, IG administered once a day for 14 days; assay type: organism-based; conditions: in vivo, po, 336 h, time 14 day
[25] = Acute toxicity in IG dosed Sprague-Dawley rat assessed as minimum lethal dose measured for 7 days; assay type: organism-based; conditions: in vivo, po, 168 h, time 7 day
[26] = Volume of distribution in male Sprague-Dawley rat at 25 mg/kg, po measured upto 24 hrs by LC-MS/MS analysis; assay type: ADME, organism-based; conditions: in vivo
[27] = Subacute toxicity in Sprague-Dawley rat assessed as organ abnormalities at 50 mg/kg, IG administered once a day for 14 days; assay type: organism-based; conditions: in vivo, po, 336 h, time 14 day
[28] = Cmax in female Sprague-Dawley rat plasma at 10 mg/kg, IG administered as single dose; assay type: ADME, organism-based; conditions: po
[29] = Tmax in male Sprague-Dawley rat at 25 mg/kg, po measured upto 24 hrs by LC-MS/MS analysis; assay type: ADME, organism-based; conditions: in vivo
[30] = Half life in male Sprague-Dawley rat at 25 mg/kg, po measured upto 24 hrs by LC-MS/MS analysis; assay type: ADME, organism-based; conditions: in vivo
[31] = Volume of distribution in male Sprague-Dawley rat at 4 mg/kg, iv administered via tail vein and measured upto 24 hrs by LC-MS/MS analysis; assay type: ADME, organism-based; conditions: in vivo
[32] = Plasma protein binding in human assessed as binding rate at 500 ng/ml prewarmed for 30 mins by LC-MS/MS analysis; assay type: ADME, cell-free; conditions: read-out: PPB (converted)
[33] = Acute toxicity in Sprague-Dawley rat assessed as lethargy at 700 mg/kg, IG measured for 7 days; assay type: organism-based; conditions: in vivo, po, 168 h, time 7 day
[34] = MRT (0 to infinity) in male Sprague-Dawley rat at 4 mg/kg, iv administered via tail vein and measured upto 24 hrs by LC-MS/MS analysis; assay type: ADME, organism-based; conditions: in vivo
[35] = Subacute toxicity in Sprague-Dawley rat assessed as effect on neutrophil count at 140 mg/kg, IG administered once a day for 14 days; assay type: organism-based; conditions: in vivo, po, 336 h, time 14 day
[36] = Plasma protein binding in rat assessed as binding rate at 250 ng/ml prewarmed for 30 mins by LC-MS/MS analysis; assay type: ADME, cell-free; conditions: read-out: PPB (converted)
[37] = Apparent permeability across apical to basolateral side in human Caco-2 cells at 5 uM measured at 60 mins; assay type: ADME, cell-based
[38] = AUC (0 to infinity) in male Sprague-Dawley rat at 25 mg/kg, po measured upto 24 hrs by LC-MS/MS analysis; assay type: ADME, organism-based; conditions: in vivo
[39] = Clearance in male Sprague-Dawley rat at 25 mg/kg, po measured upto 24 hrs by LC-MS/MS analysis; assay type: ADME, organism-based; conditions: in vivo
[40] = Cmax in male Sprague-Dawley rat plasma at 10 mg/kg, IG administered as single dose; assay type: ADME, organism-based; conditions: po
[41] = Subacute toxicity in Sprague-Dawley rat assessed as effect on ECG at 140 mg/kg, IG administered once a day for 14 days; assay type: organism-based; conditions: in vivo, po, 336 h, time 14 day
[42] = Ratio of Cmax in male Sprague-Dawley rat brain to plasma at 10 mg/kg, IG administered as single dose; assay type: ADME, organism-based; conditions: brain and plasma, po, read-out: BPR
[43] = AUC (0 to t) in male Sprague-Dawley rat at 4 mg/kg, iv administered via tail vein and measured upto 24 hrs by LC-MS/MS analysis; assay type: ADME, organism-based; conditions: in vivo
[44] = AUC (0 to infinity) in male Sprague-Dawley rat at 4 mg/kg, iv administered via tail vein and measured upto 24 hrs by LC-MS/MS analysis; assay type: ADME, organism-based; conditions: in vivo
[45] = Metabolic stability in mouse liver microsomes assessed as half life at 1 uM measured upto 120 mins by LC-MS/MS analysis; assay type: ADME, Microsome
[46] = biological target: Muscarinic acetylcholine receptor M3 (Homo sapiens, UniProt P20309); experiment: Antagonist activity at human muscarinic M3 receptor expressed in PathHunter U2OS CHRM3 beta-arrestin cells preincubated for 30 mins followed by agonist addition at 6 times EC80 and measured after 90 to 180 mins by PathHunter assay; assay type: functional, cell-based
[47] = Cmax in female Sprague-Dawley rat brain at 10 mg/kg, IG administered as single dose; assay type: ADME, organism-based; conditions: po
[48] = Clearance in male Sprague-Dawley rat at 4 mg/kg, iv administered via tail vein and measured upto 24 hrs by LC-MS/MS analysis; assay type: ADME, organism-based; conditions: in vivo
[49] = Plasma protein binding in rat assessed as binding rate at 500 ng/ml prewarmed for 30 mins by LC-MS/MS analysis; assay type: ADME, cell-free; conditions: read-out: PPB (converted)
[50] = biological target: Voltage-gated inwardly rectifying potassium channel KCNH2 (Homo sapiens, UniProt Q12809); experiment: Inhibition of hERG in HEK293 cells measured after 5 mins by patch-clamp assay
[51] = Subacute toxicity in Sprague-Dawley rat assessed as lethargy at 140 mg/kg, IG administered once a day for 14 days; assay type: organism-based; conditions: in vivo, po, 336 h, time 14 day
[52] = Half life in male Sprague-Dawley rat at 4 mg/kg, iv administered via tail vein and measured upto 24 hrs by LC-MS/MS analysis; assay type: ADME, organism-based; conditions: in vivo
Histamine H1 receptor = Histamine H1 receptor (Homo sapiens, UniProt P35367); experiment: Antagonist activity at human H1 receptor expressed in PathHunter CHO-K1 HRH1 beta-arrestin cells preincubated for 30 mins followed by agonist addition at 6 times EC80 and measured after 90 to 180 mins by PathHunter assay; assay type: functional, cell-based
Sequence of Histamine H1 receptor (P35367 whole entry): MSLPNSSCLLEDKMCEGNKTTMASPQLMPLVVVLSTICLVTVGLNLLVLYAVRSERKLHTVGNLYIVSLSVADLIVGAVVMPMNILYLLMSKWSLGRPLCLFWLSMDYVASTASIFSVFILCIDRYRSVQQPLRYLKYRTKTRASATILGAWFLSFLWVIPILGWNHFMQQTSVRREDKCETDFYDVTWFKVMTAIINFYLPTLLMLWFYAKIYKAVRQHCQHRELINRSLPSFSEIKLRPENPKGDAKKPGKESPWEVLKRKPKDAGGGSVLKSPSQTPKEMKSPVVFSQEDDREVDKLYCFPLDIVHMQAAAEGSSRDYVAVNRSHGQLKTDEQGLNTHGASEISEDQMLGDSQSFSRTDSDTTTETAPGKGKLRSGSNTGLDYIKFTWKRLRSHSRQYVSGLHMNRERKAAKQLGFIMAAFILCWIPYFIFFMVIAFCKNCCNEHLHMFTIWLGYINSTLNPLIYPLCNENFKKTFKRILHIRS

Sequence of Muscarinic acetylcholine receptor M3 (P20309 whole entry): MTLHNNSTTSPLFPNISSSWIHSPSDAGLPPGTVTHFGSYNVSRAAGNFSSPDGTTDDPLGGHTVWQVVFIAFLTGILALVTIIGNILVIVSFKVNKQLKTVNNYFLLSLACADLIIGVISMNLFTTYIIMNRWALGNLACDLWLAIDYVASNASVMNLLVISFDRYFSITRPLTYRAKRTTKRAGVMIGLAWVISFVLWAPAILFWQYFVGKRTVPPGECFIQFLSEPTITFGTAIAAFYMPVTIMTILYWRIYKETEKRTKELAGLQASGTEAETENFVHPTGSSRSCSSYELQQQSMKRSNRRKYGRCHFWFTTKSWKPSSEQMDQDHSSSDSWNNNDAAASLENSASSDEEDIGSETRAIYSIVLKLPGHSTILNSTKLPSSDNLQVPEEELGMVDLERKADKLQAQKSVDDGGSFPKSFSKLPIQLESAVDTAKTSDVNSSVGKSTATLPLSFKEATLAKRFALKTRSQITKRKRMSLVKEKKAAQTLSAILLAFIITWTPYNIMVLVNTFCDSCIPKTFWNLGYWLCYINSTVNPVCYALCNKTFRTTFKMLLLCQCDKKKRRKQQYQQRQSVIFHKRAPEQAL
Sequence of Voltage-gated inwardly rectifying potassium channel KCNH2 (Q12809 whole entry): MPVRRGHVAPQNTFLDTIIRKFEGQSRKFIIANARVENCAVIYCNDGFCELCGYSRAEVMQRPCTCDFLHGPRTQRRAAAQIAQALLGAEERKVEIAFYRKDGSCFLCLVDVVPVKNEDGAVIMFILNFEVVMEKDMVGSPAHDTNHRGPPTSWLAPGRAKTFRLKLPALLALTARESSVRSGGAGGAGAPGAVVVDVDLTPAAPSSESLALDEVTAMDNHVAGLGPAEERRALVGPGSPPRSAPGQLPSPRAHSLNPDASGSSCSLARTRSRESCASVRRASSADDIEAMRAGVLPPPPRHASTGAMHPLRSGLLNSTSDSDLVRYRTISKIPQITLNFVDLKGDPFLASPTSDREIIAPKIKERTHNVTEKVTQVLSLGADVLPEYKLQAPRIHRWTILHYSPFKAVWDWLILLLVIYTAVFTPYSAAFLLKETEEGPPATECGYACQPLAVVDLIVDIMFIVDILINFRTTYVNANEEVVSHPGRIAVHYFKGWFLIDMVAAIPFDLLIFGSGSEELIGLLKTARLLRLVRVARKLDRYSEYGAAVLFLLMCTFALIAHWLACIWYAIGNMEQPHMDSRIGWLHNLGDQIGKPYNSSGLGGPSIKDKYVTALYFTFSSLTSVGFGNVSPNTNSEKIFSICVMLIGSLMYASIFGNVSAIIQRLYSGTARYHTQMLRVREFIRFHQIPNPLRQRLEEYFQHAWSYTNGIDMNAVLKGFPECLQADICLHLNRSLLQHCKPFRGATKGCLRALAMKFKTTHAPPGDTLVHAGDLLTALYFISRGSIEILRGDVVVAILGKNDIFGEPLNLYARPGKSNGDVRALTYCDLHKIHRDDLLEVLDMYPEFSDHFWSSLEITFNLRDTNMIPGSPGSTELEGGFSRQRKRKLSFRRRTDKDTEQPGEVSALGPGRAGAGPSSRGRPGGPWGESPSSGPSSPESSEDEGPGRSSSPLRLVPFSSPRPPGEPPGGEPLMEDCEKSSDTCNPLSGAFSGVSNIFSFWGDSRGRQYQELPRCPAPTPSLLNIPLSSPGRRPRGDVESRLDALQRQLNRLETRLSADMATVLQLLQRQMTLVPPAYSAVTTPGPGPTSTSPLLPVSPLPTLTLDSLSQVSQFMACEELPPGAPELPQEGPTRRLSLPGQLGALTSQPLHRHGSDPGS

CC(C)(C(=O)O)c1cccc(CCCN2CCC(=C3c4ccc(Cl)cc4CCc4cccnc43)CC2)c1
Stability [1]: Stable
fraction unbound at 0.5 h, 1000 ng/ml [2]: 0.321
fraction unbound at 0.5 h, 1000 ng/ml [3]: 0.327
Papp B→A at 1 h, 5 µM [4]: 6.06 ×10⁻⁶ cm/s
Activity [5]: Toxic
Activity [6]: Toxic
Stability [7]: Stable
AUC(0-t) at 24 h [8]: 6250 ng·h/mL
inhibition (INH) (Cytochrome P450 1A2): Not Active
Activity [9]: Non-Toxic
MRT inf [10]: 6.01 h
Activity [11]: Toxic
Cmax [12]: 1720 ng/mL
fraction unbound at 0.5 h, 250 ng/ml [13]: 0.347
fraction unbound at 0.5 h, 1200 ng/ml [14]: 0.284
Activity [15]: Toxic
Activity [16]: Toxic
Activity [17]: Non-Toxic
Activity [18]: Toxic
Activity [19]: Non-Toxic
bioavailability [20]: 59.5%
Cmax [21]: 15.8 ng/g
fraction unbound at 0.5 h, 1200 ng/ml [22]: 0.302
Kp [23]: 0.066
Activity [24]: Non-Toxic
MLD [25]: 350 mg/kg
Vd [26]: 21.26 L/kg
Activity [27]: Non-Toxic
Cmax [28]: 1930 ng/g
Tmax [29]: 0.38 h
half-life [30]: 4.05 h
Vd [31]: 1.77 L/kg
fraction unbound at 0.5 h, 500 ng/ml [32]: 0.321
Activity [33]: Toxic
MRT inf [34]: 0.7 h
Activity [35]: Non-Toxic
fraction unbound at 0.5 h, 250 ng/ml [36]: 0.346
Papp A→B at 1 h, 5 µM [37]: 5.82 ×10⁻⁶ cm/s
AUC(0-inf) [38]: 7210 ng·h/mL
CL/F [39]: 59.4 mL/min/kg
Cmax [40]: 239 ng/g
Activity [41]: Non-Toxic
Kp [42]: 0.066
AUC(0-t) at 24 h [43]: 1680 ng·h/mL
AUC(0-inf) [44]: 1820 ng·h/mL
half-life at 1 µM [45]: 1.44 h
IC50 [46]: > 10 µM
Cmax [47]: 126 ng/g
clearance [48]: 37 mL/min/kg
fraction unbound at 0.5 h, 500 ng/ml [49]: 0.34
IC50 [50]: 17.6 µM
Activity [51]: Toxic
half-life [52]: 0.653 h

CC(C)(C(=O)O)c1cccc(CC(O)CN2CCC(=C3c4ccc(Cl)cc4CCc4cccnc43)CC2)c1 (stereo not given)
IC50 (Histamine H1 receptor): 0.0572 µM
IC50 [46]: > 10 µM
